In US20100028334A1, “COMPOSITIONS AND METHODS TO POTENTIATE COLISTIN ACTIVITY” (TRUSTEES OF BOSTON UNIVERSITY, priority 2006, published 2010):

Tests used:
gram-positive bacteria = type: cell-based; details: used concurrently with colistin; data not shown
E. coli = experiment: minimum inhibitory concentration (MIC) assay of colistin with mefloquine; type: cell-based
Description: The efficacy of colistin in inhibiting the growth and/or suppressing survival of E. coli in the presence of one inhibitor, mefloquine was assessed in a minimum inhibitory concentration (MIC) assay.

[1] = molecular target: Escherichia coli H+-ATP synthase (Escherichia coli, UniProt P0AB98+P68699); details: cited from earlier work
iscS mutant = details: Rojas and Vasquez, 2005; cited from earlier work
[2] = system: wild-type, BW25113 E. coli cells; experiment: colony formation unit (CFU) assay, parent strain; type: cell-based
Description: (§1) The cells were incubated with colistin at a final concentration of 1.25 ug/ml. […] 10 ul of cells were plated onto LB agar [no colistin] plates. Number of colonies were counted after overnight incubation at 37 C. Colony count was normalized to get the same starting amount of cells for all strains. […] Log change in colony forming units per ml (CFU/ml) of wild-type, BW25113 E. coli cells (mean±s.d.) in presence or absence of colistin and potassium tellurite. Cell were grown in the absence or presence of colistin (1.25 ug/ml), potassium tellurite (1.6 ug/ml) alone and combined. […] Number of colonies were counted after overnight incubation at 37 C. Colony count was normalized to get the same starting amount of cells for all strains.
For CFU measurements, 50 μl of stationary phase culture was inoculated into 5 ml of LB. 240 or 245 μl of the freshly diluted cells were placed into wells of a 96 well plate (Costar), 5 μl of colistin and or potassium tellurite were added into each well to obtain a final volume of 250 μl. The 96 well plates were then incubated at 37° C. At the 0, 3 and 6 hours time points, 20 μl of culture was collected and then serially diluted in 180 μl of 1×PBS, pH 7.2 (Fisher). A 10 μl portion of each dilution was plated onto LB agar (Fisher)), and the plate was incubated overnight at 37° C. Dilutions that yielded between 20 and 100 colonies were counted and CFU were normalized to reflect the same amount of cells for the starting cultures.
The cells were grown with or without colistin, aliquots were taken at defined time points and serial dilution of the cells plated, colony count allowed to quantify the bactericidal effect of colistin. We noticed that the iscS and ubiH mutants were slow growers and formed small size colonies compared to the parent strain.

P aeruginosa = details: recent studies; cited from earlier work
[3] = after intravenous administration of colistimethate (sodium); cited from earlier work
[4] = cited from earlier work
[5] = system: ubiH and iscS mutant E. coli cells; experiment: colony formation unit (CFU) assay, deletion mutants; type: cell-based; details: colistin 1.25 ug/ml, FIG. 5A
Description: as §1
For CFU measurements, 50 μl of stationary phase culture was inoculated into 5 ml of LB. 240 or 245 μl of the freshly diluted cells were placed into wells of a 96 well plate (Costar), 5 μl of colistin and or potassium tellurite were added into each well to obtain a final volume of 250 μl. […] Dilutions that yielded between 20 and 100 colonies were counted and CFU were normalized to reflect the same amount of cells for the starting cultures.
The cells were grown with or without colistin, aliquots were taken at defined time points and serial dilution of the cells plated, colony count allowed to quantify the bactericidal effect of colistin. […]

Compound: OC(c1cc(C(F)(F)F)nc2c(C(F)(F)F)cccc12)C1CCCCN1 (stereo not shown) [mefloquine]
- potentiation of colistin against gram-positive bacteria (gram-positive bacteria): potentiates colistin ability to decrease gram-positive bacteria
- potentiation of colistin efficacy by mefloquine (E. coli; mefloquine at concentrations above 50 μg/ml or greater): dose-dependent potentiation of colistin efficacy

Compound: CC[C@H]1/C=C/C=C/C[C@@H](C)[C@H](O)[C@@](C)(O)C(=O)[C@@H](C)[C@H](O)[C@@H](C)C(=O)[C@@H](C)[C@H](O)[C@@H](C)/C=C/C(=O)O[C@@H]2[C@H](C)[C@H](CC1)O[C@]1(CC[C@H](C)[C@H](C[C@@H](C)O)O1)[C@H]2C [oligomycin]
- inhibition of ATP-driven proton transport and ATP hydrolysis [1]: weakly inhibited

Compound: O=[Te]([O-])[O-].[K+].[K+] [potassium tellurite]
- sensitivity of iscS mutant (iscS mutant): sensitive
- effect on CFU ([2]; potassium tellurite 1.6 ug/ml, 3 hour time point): not or little affecting the CFU
- growth inhibition ([2]; potassium tellurite 1.6 ug/ml, 6 hours): stronger growth inhibition

Compound: colistimethate
- antibacterial activity (P aeruginosa): non-active prodrug of colistin
- plasma half-lives relative to those of the colistin generated [3]: approximately half

Compound: colistin
- stability in human plasma [4]: more stable than colistimethate
- colony detection ([5]; 5 hour time point): almost no colony detection
- viability of mutants when exposed to colistin [5]: significant decrease in viability
- MIC of colistin (E. coli; in the absence of mefloquine): 6.3 µg/mL
- MIC of colistin required to suppress growth (E. coli; in the presence of 50 μg/ml of mefloquine): 6.3 µg/mL
- MIC of colistin required to suppress growth (E. coli; in the presence of 100 μg/ml of mefloquine): 3.1 µg/mL
- MIC of colistin required to suppress growth (E. coli; in the presence of 200 μg/ml of mefloquine): 0.8 µg/mL
- viability of parent strain compared to non treated cells ([2]; colistin 1.25 ug/ml, 3 and 5 hour time points, FIG. 5A): no significant decrease in viability
- viability (CFU) compared to non treated cells ([2]; colistin 1.25 ug/ml, 3 hour time point, FIG. 5B): no significant decrease in viability
- viability (CFU) ([2]; colistin 1.25 ug/ml, 5 hour time point, FIG. 5B): decrease in viability

Compound: venturicidin
- inhibition of ATP-driven proton transport and ATP hydrolysis [1]: strongly inhibited
